Reference: PubChem BioAssay AID179 (DTP/NCI, 2004)
Values joined by “and” are separate entries in the source; they are usually repeats but may differ in a detail not shown here. Equal values may be shown once. Active and inactive are the calls of the source.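 Rule for the calls: active = compounds giving half or more protection of infected cells from virus-caused growth loss, again on retest; inactive = the rest.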

System: CEM cells HIV-1 protection, formazan growth assay
Experiment: NCI AIDS Antiviral Assay
Conditions: for IC50: measured here: growth of uninfected CEM cells
Outline: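 Protection of CEM cells against HIV-1 was scored from cell growth (soluble formazan) across five concentrations, with parallel uninfected cells. Lack of protection may reflect toxicity.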

| SMILES | outcome | EC50 | IC50 |
| --- | --- | --- | --- |
| CC(=O)OC[C@]12[C@H](OC(C)=O)[C@H](OC(C)=O)[C@@H]3C(OC(C)=O)[C@@]14OC3(C)COC(=O)c1cccnc1CCC(C)C(=O)OC([C@H](O)[C@@H]2OC(=O)c1ccccc1)[C@]4(C)O (some centres undefined) | inactive |  |  |
| CCN(CC)C(=O)c1c(Cl)cc(N(CC)CC)oc1=O |  | > 832 µM | > 832 µM |
| CC1(C)C2CCC(O)(C2)C1N (centres undefined) |  | > 200 µM | > 200 µM |
| Nc1cccc(OCC2CCCN3CCCCC23)c1 (centres undefined) |  | > 200 µM | 13.8 µM |
| Cc1cc2nc(C=C(C(F)(F)F)C(F)(F)F)sc2cc1C |  | > 20 µM | 3.63 µM |
| CC(C)OC(=O)C(NC(=O)C(CC(=O)OCc1ccccc1)NC(=O)OCc1ccccc1)NC(=O)C1C(C)(C)CCC1(C)C (centres undefined) |  | > 200 µM | 12.6 µM |
| CC1=NN(c2ccc(S(=O)(=O)O)cc2)C(=O)C1N=Nc1ccc(-c2ccc(N=Nc3ccc(OS(=O)(=O)c4ccc(C)cc4)cc3)c(S(=O)(=O)O)c2)cc1 (centres undefined) |  | 100 µM | 151 µM |
| O=C(O)CC(NC(=O)Nc1ccc([N+](=O)[O-])cc1)C(=O)Nc1ccc([N+](=O)[O-])cc1 (centres undefined) |  | > 200 µM | > 200 µM |
| C[S+]1CC2C3CC(C#N)C(C3)C2C1 (centres undefined) |  | > 275 µM | > 275 µM |
| NCCN.NCCN.O=C[O-].O=C[O-].[Co+3].[O-][Cl+3]([O-])([O-])[O-] | inactive |  |  |
| CC(=O)NC1C(OCc2ccccc2)OC(COC(=O)CCCCCCCCCCNC(=O)CCNc2ccc([N+](=O)[O-])c3[nH]c4ccc(O)cc4c(=O)c23)C(O)C1OC(C)C(=O)N[C@H](C(=O)N[C@H](CCC(=O)O)C(N)=O)C(C)C (some centres undefined) |  | > 224 µM | 87.1 µM |
| Cn1cc(NC(=O)Nc2cc(C(=O)Nc3cc(C(=O)Nc4cc(C(=O)Nc5ccc(S(=O)(=O)O)c6cc(S(=O)(=O)O)ccc56)n(C)c4)n(C)c3)n(C)c2)cc1C(=O)Nc1cc(C(=O)Nc2cc(C(=O)Nc3ccc(S(=O)(=O)O)c4cc(S(=O)(=O)O)ccc34)n(C)c2)n(C)c1 |  | 0.178 µM | 75.9 µM |
| O=C(/C=C/c1ccc(Cl)c(Cl)c1)CCN1CCN(CCC(=O)/C=C/c2ccc(Cl)c(Cl)c2)CC1 |  | > 200 µM | 1.91 µM |
| CN1C(c2ccccc2)CS(=O)(=O)CS1(=O)=O (centres undefined) | inactive |  |  |
| COC(=O)c1cc(C(=CCCCC=O)c2cc(Cl)c(OC)c(C(=O)OC)c2)cc(Cl)c1OC |  | > 200 µM | 11.5 µM |
| O=C(O)CCC1(Br)CCCCC(Br)C1=O (centres undefined) |  | > 724 µM | 245 µM |

| SMILES | outcome | EC50 | IC50 |
| --- | --- | --- | --- |
| CN(C)/N=C1/CCC(C(F)(F)F)(C(F)(F)F)O1 |  | > 200 µM | 6.76 µM |
| CC(C)=CCC/C(C)=C/CC12OC(C)(C)C(Cl)CC1(Cl)C(=O)c1c(O)cc(O)cc1C2=O (centres undefined) |  | > 37.2 µM | 11 µM |
| CC(NC(=O)C(N)CC(=O)O)C(=O)OC12CC3CC(CC(C3)C1)C2 (centres undefined) |  | > 200 µM | > 200 µM |
| Cc1cc2ncn(C3CCCO3)c2cc1C (centres undefined) |  | > 200 µM | > 200 µM |
| CCC[CH2][Sn]1([CH2]CCC)[O]CC(CN(C)Cc2ccccc2)[O]1 (centres undefined) |  | > 20.9 µM | 0.138 µM |
| O=C1NC2c3c(I)sc(I)c3C(=O)C2O1 (centres undefined) |  | 0.603 µM | 1.12 µM |
| C=CC(C)(C)c1c(OC(C)=O)cc2oc3c(OC(C)=O)c(OC(C)=O)cc(CC=C(C)C)c3c(=O)c2c1O |  | > 200 µM | 120 µM |
| N#CC(/C(=N/NC(=O)C(=O)NN)C(=O)Nc1nc([N+](=O)[O-])cs1)c1ccc(Cl)cc1 (centres undefined) |  | 95.5 µM | 209 µM |
| CCN(CC)c1ccc(N=C2C=CC(=O)c3ncccc32)c(C)c1 |  | > 11.7 µM | > 11.7 µM |
| CCC(C(=O)c1ccc(OC)c(OC)c1)N(C(=O)C(F)(F)F)C(C)c1ccccc1 (centres undefined) |  | > 200 µM | > 200 µM |
| ClCC[N+]12CC[N+](CCCl)(CC1)C2 | inactive |  |  |
| COC(=Nc1ccccc1)SSC(C)C |  | > 200 µM | 2.82 µM |
| CCN1CCCC(C#N)(c2ccccc2)CC1 (centres undefined) |  | > 933 µM | 501 µM |
| Nc1ccccc1SSc1ccccc1N | inactive | > 200 µM | 25.1 µM and 5.37 µM |
| COc1ccc2c(c1)c1c(n2CCN(C)C)-c2cccc(OC)c2CC1 |  | > 200 µM | 11 µM |
